Data reported in the supplement of paper PMC10307832.

Legend:
Experiment in all cases: relative viability (nuclei count vs DMSO), 5 days (fraction); higher = more cells survive
201T = tested on: 201T
In short: (§1)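 A single step with final 0.05% Triton X-100, 1% formaldehyde and 1 ug/ml Hoechst fixed the cells and stained nuclei 5 days after treatment. Lung cancer cell lines in 1536-well plates had been treated by pin tool the day after seeding with one drug alone or a fixed anchor-drug dose plus five library-drug doses (not always all listed) in √10 steps, and nuclei were counted on 4× images. Relative viability is the ratio of nuclei in treated wells to nuclei in vehicle wells, taken as the median of duplicate plates.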

A-427 = tested on: A-427
In short: as §1

BEN = tested on: BEN
In short: as §1

COR-L 105 = tested on: COR-L 105
In short: as §1

COR-L23 = tested on: COR-L23
In short: as §1

EKVX = tested on: EKVX
In short: as §1

HARA = tested on: HARA
In short: as §1

HCC-15 = tested on: HCC-15
In short: as §1

HCC-44 = tested on: HCC-44
In short: as §1

HCC-827 = tested on: HCC-827
In short: as §1

LK-2 = tested on: LK-2
In short: as §1

NCI-H1437 = tested on: NCI-H1437
In short: as §1

NCI-H1666 = tested on: NCI-H1666
In short: as §1

NCI-H1975 = tested on: NCI-H1975
In short: as §1

NCI-H23 = tested on: NCI-H23
In short: as §1

NCI-H358 = tested on: NCI-H358
In short: as §1

NCI-H441 = tested on: NCI-H441
In short: as §1

NCI-H596 = tested on: NCI-H596
In short: as §1

NCI-H650 = tested on: NCI-H650
In short: as §1

NCI-H838 = tested on: NCI-H838
In short: as §1

SK-MES-1 = tested on: SK-MES-1
In short: as §1

SW 900 = tested on: SW 900
In short: as §1

C=C1C(=O)O[C@@H](CCCCCCCC)[C@@H]1C(=O)O [C-75] + Cc1cc(Nc2cc(N3CCN(C)CC3)nc(Sc3ccc(NC(=O)C4CC4)cc3)n2)n[nH]1 [Tozasertib] (partner 0.1 µM)
relative viability (201T; first compound 0.08 µM): 0.985 | relative viability (201T; first compound 0.253 µM): 1.12 | relative viability (201T; first compound 0.8 µM): 1.04 | relative viability (201T; first compound 2.53 µM): 0.932 | relative viability (201T; first compound 8 µM): 1.02 | relative viability (A-427; first compound 0.08 µM): 0.219 | relative viability (A-427; first compound 0.253 µM): 0.264 | relative viability (A-427; first compound 0.8 µM): 0.221 | relative viability (A-427; first compound 2.53 µM): 0.199 | relative viability (A-427; first compound 8 µM): 0.175 | relative viability (BEN; first compound 0.08 µM): 0.494 | relative viability (BEN; first compound 0.253 µM): 0.605 | relative viability (BEN; first compound 0.8 µM): 0.544 | relative viability (BEN; first compound 2.53 µM): 0.484 | relative viability (BEN; first compound 8 µM): 0.612 | relative viability (COR-L 105; first compound 0.08 µM): 0.366 | relative viability (COR-L 105; first compound 0.253 µM): 0.167 | relative viability (COR-L 105; first compound 0.8 µM): 0.412 | relative viability (COR-L 105; first compound 2.53 µM): 0.351 | relative viability (COR-L 105; first compound 8 µM): 0.341 | relative viability (COR-L23; first compound 0.08 µM): 0.232 | relative viability (COR-L23; first compound 0.253 µM): 0.267 | relative viability (COR-L23; first compound 0.8 µM): 0.209 | relative viability (COR-L23; first compound 2.53 µM): 0.172 | relative viability (COR-L23; first compound 8 µM): 0.179 | relative viability (EKVX; first compound 0.08 µM): 0.42 | relative viability (EKVX; first compound 0.253 µM): 0.56 | relative viability (EKVX; first compound 0.8 µM): 0.406 | relative viability (EKVX; first compound 8 µM): 0.382 | relative viability (HARA; first compound 0.08 µM): 0.149 | relative viability (HARA; first compound 0.253 µM): 0.0813 | relative viability (HARA; first compound 0.8 µM): 0.112 | relative viability (HARA; first compound 2.53 µM): 0.0971 | relative viability (HARA; first compound 8 µM): 0.145 | relative viability (HCC-15; first compound 0.08 µM): 0.457 | relative viability (HCC-15; first compound 0.253 µM): 0.608 | relative viability (HCC-15; first compound 0.8 µM): 0.407 | relative viability (HCC-15; first compound 2.53 µM): 0.427 | relative viability (HCC-15; first compound 8 µM): 0.39 | relative viability (HCC-44; first compound 0.08 µM): 0.989 | relative viability (HCC-44; first compound 0.253 µM): 0.942 | relative viability (HCC-44; first compound 0.8 µM): 0.9 | relative viability (HCC-44; first compound 2.53 µM): 0.878 | relative viability (HCC-44; first compound 8 µM): 0.714 | relative viability (HCC-827; first compound 0.08 µM): 0.428 | relative viability (HCC-827; first compound 0.253 µM): 0.413 | relative viability (HCC-827; first compound 0.8 µM): 0.431 | relative viability (HCC-827; first compound 2.53 µM): 0.379 | relative viability (HCC-827; first compound 8 µM): 0.411 | relative viability (LK-2; first compound 0.08 µM): 0.214 | relative viability (LK-2; first compound 0.253 µM): 0.157 | relative viability (LK-2; first compound 0.8 µM): 0.195 | relative viability (LK-2; first compound 2.53 µM): 0.155 | relative viability (LK-2; first compound 8 µM): 0.19 | relative viability (NCI-H1437; first compound 0.08 µM): 0.387 | relative viability (NCI-H1437; first compound 0.253 µM): 0.462 | relative viability (NCI-H1437; first compound 0.8 µM): 0.442 | relative viability (NCI-H1437; first compound 2.53 µM): 0.355 | relative viability (NCI-H1437; first compound 8 µM): 0.437 | relative viability (NCI-H1666; first compound 0.08 µM): 0.653 | relative viability (NCI-H1666; first compound 0.253 µM): 0.66 | relative viability (NCI-H1666; first compound 0.8 µM): 0.647 | relative viability (NCI-H1666; first compound 2.53 µM): 0.613 | relative viability (NCI-H1666; first compound 8 µM): 0.499 | relative viability (NCI-H1975; first compound 0.08 µM): 0.873 | relative viability (NCI-H1975; first compound 0.253 µM): 0.757 | relative viability (NCI-H1975; first compound 0.8 µM): 0.684 | relative viability (NCI-H1975; first compound 2.53 µM): 0.732 | relative viability (NCI-H1975; first compound 8 µM): 0.78 | relative viability (NCI-H23; first compound 0.08 µM): 0.36 | relative viability (NCI-H23; first compound 0.253 µM): 0.57 | relative viability (NCI-H23; first compound 0.8 µM): 0.417 | relative viability (NCI-H23; first compound 2.53 µM): 0.339 | relative viability (NCI-H23; first compound 8 µM): 0.254 | relative viability (NCI-H358; first compound 0.08 µM): 0.0979 | relative viability (NCI-H358; first compound 0.253 µM): 0.104 | relative viability (NCI-H358; first compound 0.8 µM): 0.104 | relative viability (NCI-H358; first compound 2.53 µM): 0.0847 | relative viability (NCI-H358; first compound 8 µM): 0.103 | relative viability (NCI-H441; first compound 0.08 µM): 0.624 | relative viability (NCI-H441; first compound 0.253 µM): 0.895 | relative viability (NCI-H441; first compound 0.8 µM): 0.713 | relative viability (NCI-H441; first compound 2.53 µM): 0.543 | relative viability (NCI-H441; first compound 8 µM): 0.729 | relative viability (NCI-H596; first compound 0.08 µM): 0.889 | relative viability (NCI-H596; first compound 0.253 µM): 1.09 | relative viability (NCI-H596; first compound 0.8 µM): 0.728 | relative viability (NCI-H596; first compound 2.53 µM): 0.83 | relative viability (NCI-H596; first compound 8 µM): 0.821 | relative viability (NCI-H650; first compound 0.08 µM): 0.759 | relative viability (NCI-H650; first compound 0.253 µM): 0.651 | relative viability (NCI-H650; first compound 0.8 µM): 0.718 | relative viability (NCI-H650; first compound 2.53 µM): 0.616 | relative viability (NCI-H650; first compound 8 µM): 0.62 | relative viability (NCI-H838; first compound 0.08 µM): 0.311 | relative viability (NCI-H838; first compound 0.8 µM): 0.229 | relative viability (NCI-H838; first compound 2.53 µM): 0.293 | relative viability (NCI-H838; first compound 8 µM): 0.266 | relative viability (SK-MES-1; first compound 0.08 µM): 0.924 | relative viability (SK-MES-1; first compound 0.253 µM): 0.989 | relative viability (SK-MES-1; first compound 0.8 µM): 0.823 | relative viability (SK-MES-1; first compound 2.53 µM): 0.863 | relative viability (SK-MES-1; first compound 8 µM): 0.898 | relative viability (SW 900; first compound 0.08 µM): 0.595 | relative viability (SW 900; first compound 0.253 µM): 0.919 | relative viability (SW 900; first compound 0.8 µM): 0.571 | relative viability (SW 900; first compound 2.53 µM): 0.704 | relative viability (SW 900; first compound 8 µM): 0.506
